The values below come from US20160145247A1, “Aminomethyl-Biaryl Derivatives Complement Factor D inhibitors and uses thereof” (NOVARTIS AG, priority 2013, published 2016).

pIC50: −log10 of the molar value.

T1 sequence (P00746 26-253): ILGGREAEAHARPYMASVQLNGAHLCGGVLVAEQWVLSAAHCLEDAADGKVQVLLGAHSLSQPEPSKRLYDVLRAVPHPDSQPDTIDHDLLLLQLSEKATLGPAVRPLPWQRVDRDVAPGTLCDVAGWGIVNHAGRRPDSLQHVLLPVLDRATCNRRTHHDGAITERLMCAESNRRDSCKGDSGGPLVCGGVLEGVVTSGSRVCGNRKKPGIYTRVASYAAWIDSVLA

The assay has as its target T1, factor D (Homo sapiens, UniProt P00746).
T1 construct: made in house; host or cells: E. coli
In words: factor D inhibition assay of Biological Example 2. The assay is classed as biochemical.
With `C[C@@H](N)c1cccc(-c2cc(NCC3CC3)c3c(c2)C(Oc2ccccc2CC(=O)O)CCC3)c1F` (some centres unmarked) [Example 216-Z], the pIC50 is 7.89. The value for `C[C@@H](N)c1cccc(-c2cc(C#Cc3ccn(C)n3)cc(COc3ccccc3CC(=O)O)c2)c1F` [Example 218-G, (R)-2-(2-((3′-(1-Aminoethyl)-2′-fluoro-5-((1-methyl-1H-pyrazol-3-yl)ethynyl)-[1,1′-biphenyl]-3-yl)methoxy)phenyl)acetic acid] was 8.22.

On to `C[C@@H](N)c1cccc(-c2cc(CCc3ccn(C)n3)cc(COc3ccccc3CC(=O)O)c2)c1F` [Example 218-I, (R)-2-(2-((3′-(1-aminoethyl)-2′-fluoro-5-(2-(1-methyl-1H-pyrazol-3-yl)ethyl)-[1,1′-biphenyl]-3-yl)methoxy)phenyl)acetic acid], for which the pIC50 was 8.00. As for `C[C@@H](N)c1cccc(-c2ccc3c(c2)N(Cc2ccccc2CC(=O)O)CCC3)c1F` [Example 219-D, (R)-2-(2-((7-(3-(1-Aminoethyl)-2-fluorophenyl)-3,4-dihydroquinolin-1(2H)-yl)methyl)phenyl)acetic acid], the figure is 7.21; as for `C[C@@H](N)c1cccc(-c2cccc(N(C)Cc3ccccc3CC(=O)O)c2)c1F` [Example 220-D, (R)-2-(2-(((3′-(1-aminoethyl)-2′-fluoro-[1,1′-biphenyl]-3-yl)(methyl)amino)methyl)phenyl)acetic acid], 7.36; as for `C[C@@H](N)c1cccc(-c2cc(N)c(F)c(COc3ccccc3CC(=O)O)c2)c1F` [Example 221 a), (R)-2-(2-((5-amino-3′-(1-aminoethyl)-2′,4-difluoro-[1,1′-biphenyl]-3-yl)methoxy)phenyl)acetic acid], 8.22. As for `C[C@@H](N)c1cccc(-c2cc(COc3ccccc3CC(=O)O)cc(NCC3CCCO3)c2F)c1F` (stereo partly drawn) [Example 222, 2-(2-((3′-((R)-1-aminoethyl)-2′,6-difluoro-5-(((tetrahydrofuran-2-yl)methyl)amino)-[1,1′-biphenyl]-3-yl)methoxy)phenyl)acetic acid], the figure is 7.80; as for `COCCNc1cc(COc2ccccc2CC(=O)O)cc(-c2cccc([C@@H](C)N)c2F)c1` [Example 223-B, (R)-2-(2-((3′-(1-aminoethyl)-2′-fluoro-5-((2-methoxyethyl)amino)-[1,1′-biphenyl]-3-yl)methoxy)phenyl)acetic acid], 8.05. The value for `CC(C)CNc1cc(COc2ccccc2CC(=O)O)cc(-c2cccc([C@@H](C)N)c2F)c1` [Example 224-B, (R)-2-(2-((3′-(1-aminoethyl)-2′-fluoro-5-(isobutylamino)-[1,1′-biphenyl]-3-yl)methoxy)phenyl)acetic acid] was 8.05; that for `C[C@@H](N)c1cccc(-c2cc(COc3ccccc3CC(=O)O)cc(NC[C@H]3CCCO3)c2)n1` [Example 225-C, 2-(2-((3-(6-((R)-1-aminoethyl)pyridin-2-yl)-5-((((R)-tetrahydrofuran-2-yl)methyl)amino)benzyl)oxy)phenyl)acetic acid] was 7.80; that for `C[C@@H](N)c1cccc(-c2cc(COc3ccccc3CC(=O)O)cc(NCC(F)(F)F)c2)c1F` [Example 226-C, (R)-2-(2-((3′-(1-aminoethyl)-2′-fluoro-5-((2,2,2-trifluoroethyl)amino)-[1,1′-biphenyl]-3-yl)methoxy)phenyl)acetic acid] was 8.10. `C[C@@H](N)c1cccc(-c2cc(COc3ccccc3CC(=O)O)cc(NCC3(C)CC3)c2)c1F` [Example 227, (R)-2-(2-((3′-(1-aminoethyl)-2′-fluoro-5-(((1-methylcyclopropyl)methyl)amino)-[1,1′-biphenyl]-3-yl)methoxy)phenyl)acetic acid]: the pIC50 is 8.00.

`CC(=O)N(C)c1cc(COc2ccccc2CC(=O)O)cc(-c2cccc([C@@H](C)N)c2F)c1` [Example 229, (R)-2-(2-((3′-(1-aminoethyl)-2′-fluoro-5-(N-methylacetamido)-[1,1′-biphenyl]-3-yl)methoxy)phenyl)acetic acid] had a pIC50 of 6.97. As for `C[C@@H](N)c1cccc(-c2cc(COc3ccccc3CC(=O)O)cc(-c3cnn(C)c3)c2)c1F` [Example 230, (R)-2-(2-((3′-(1-aminoethyl)-2′-fluoro-5-(1-methyl-1H-pyrazol-4-yl)-[1,1′-biphenyl]-3-yl)methoxy)phenyl)acetic acid], the figure is 8.52.

With `C[C@@H](N)c1cccc(-c2cc(COc3ccccc3CC(=O)O)cc(OCC(F)(F)F)c2)c1F` [Example 231-B, (R)-2-(2-((3′-(1-aminoethyl)-2′-fluoro-5-(2,2,2-trifluoroethoxy)-[1,1′-biphenyl]-3-yl)methoxy)phenyl)acetic acid], the negative-log IC50 (pIC50) is 7.96. As for `N[C@H](CO)c1cccc(-c2cc(COc3ccccc3CC(=O)O)cc(OC[C@H]3CCCO3)c2)c1F` [Example 231-F, 2-(2-((3′-((S)-1-amino-2-hydroxyethyl)-2′-fluoro-5-(((R)-tetrahydrofuran-2-yl)methoxy)-[1,1′-biphenyl]-3-yl)methoxy)phenyl)acetic acid], the figure is 8.05; as for `C[C@@H](N)c1cccc(-c2cc(COc3ccccc3CC(=O)O)cc(OC[C@H]3CCCO3)c2)c1F` [Example 232, 2-(2-((3′-((R)-1-aminoethyl)-2′-fluoro-5-(((R)-tetrahydrofuran-2-yl)methoxy)-[1,1′-biphenyl]-3-yl)methoxy)phenyl)acetic acid], 8.70.

Molecule `C[C@H](N)c1cccc(-c2cc(COc3ccccc3CC(=O)O)cc(OC[C@H]3CCCO3)c2)c1F` [Example 233, 2-(2-((3′-((S)-1-aminoethyl)-2′-fluoro-5-(((R)-tetrahydrofuran-2-yl)methoxy)-[1,1′-biphenyl]-3-yl)methoxy)phenyl)acetic acid] gave a negative logarithm of the IC50 (pIC50) of 8.40.

Regarding `NCc1cccc(-c2cc(COc3ccccc3CC(=O)O)cc(OC[C@H]3CCCO3)c2)c1F` [Example 234-B, (R)-2-(2-((3′-(aminomethyl)-2′-fluoro-5-((tetrahydrofuran-2-yl)methoxy)-[1,1′-biphenyl]-3-yl)methoxy)phenyl)acetic acid], the pIC50 was 8.40. As for `C[C@@H](N)c1cccc(-c2cc(COc3ccccc3CC(=O)O)cc(OC[C@H]3CCCO3)c2)n1` [Example 235, 2-(2-((3-(6-((R)-1-aminoethyl)pyridin-2-yl)-5-(((R)-tetrahydrofuran-2-yl)methoxy)benzyl)oxy)phenyl)acetic acid], the figure is 7.47. On to `C[C@@H](N)c1cccc(-c2cc(CCC3CCCO3)cc(COc3ccccc3CC(=O)O)c2)c1F` (stereo partly drawn) [Example 236-C, 2-(2-((3′-((R)-1-aminoethyl)-2′-fluoro-5-(2-(tetrahydrofuran-2-yl)ethyl)-[1,1′-biphenyl]-3-yl)methoxy)phenyl)acetic acid], for which the pIC50 is 8.05. On to `C[C@@H](N)c1cccc(-c2cc(CCC3CCCC3)cc(COc3ccccc3CC(=O)O)c2)c1F` [Example 237, (R)-2-(2-((3′-(1-aminoethyl)-5-(2-cyclopentylethyl)-2′-fluoro-[1,1′-biphenyl]-3-yl)methoxy)phenyl)acetic acid], for which the pIC50 was 7.96. As for `C[C@@H](N)c1cccc(-c2cc(CCC3CCCN3)cc(COc3ccccc3CC(=O)O)c2)c1F` (stereo partly drawn) [Example 238, 2-(2-((3′-((R)-1-aminoethyl)-2′-fluoro-5-(2-(pyrrolidin-2-yl)ethyl)-[1,1′-biphenyl]-3-yl)methoxy)phenyl)acetic acid], the figure is 7.64. As for `C[C@@H](N)c1cccc(-c2cc(CCC3CNCCO3)cc(COc3ccccc3CC(=O)O)c2)c1F` (stereo partly drawn) [Example 239-C, 2-(2-((3′-((R)-1-aminoethyl)-2′-fluoro-5-(2-(morpholin-2-yl)ethyl)-[1,1′-biphenyl]-3-yl)methoxy)phenyl)acetic acid], the figure is 7.89; as for `C[C@@H](N)c1cccc(-c2cc(CCC3CCCN3C)cc(COc3ccccc3CC(=O)O)c2)c1F` (stereo partly drawn) [Example 240-B, 2-(2-((3′-((R)-1-aminoethyl)-2′-fluoro-5-(2-(1-methylpyrrolidin-2-yl)ethyl)-[1,1′-biphenyl]-3-yl)methoxy)phenyl)acetic acid], 6.96.

Molecule `C[C@@H](N)c1cccc(-c2cc(COc3ccccc3CC(=O)O)cc(N3CCCCC3)c2)c1F` [Example 241-C, (R)-2-(2-((3′-(1-Aminoethyl)-2′-fluoro-5-(piperidin-1-yl)-[1,1′-biphenyl]-3-yl)methoxy)phenyl)acetic acid] showed a negative logarithm of the IC50 (pIC50) of 7.40. In turn, `CCN(CC1CC1)c1cc(COc2ccccc2CC(=O)O)cc(-c2cccc([C@@H](C)N)c2F)c1` [Example 242-C, (R)-2-(2-((3′-(1-aminoethyl)-5-((cyclopropylmethyl)(ethyl)amino)-2′-fluoro-[1,1′-biphenyl]-3-yl)methoxy)phenyl)acetic acid] showed a pIC50 of 7.05. As for `C[C@@H](N)c1cccc(-c2cc(COc3ccccc3CC(=O)O)cc(C3CCCCC3)c2)c1F` [Example 243-D, (R)-2-(2-((3′-(1-aminoethyl)-5-cyclohexyl-2′-fluoro-[1,1′-biphenyl]-3-yl)methoxy)phenyl)acetic acid], the figure is 7.89; as for `C[C@@H](N)c1cccc(-c2cc(COc3ccccc3CC(=O)O)cc(C3CCCC3)c2)c1F` [Example 244, (R)-2-(2-((3′-(1-aminoethyl)-5-cyclopentyl-2′-fluoro-[1,1′-biphenyl]-3-yl)methoxy)phenyl)acetic acid], 8.52; as for `C[C@@H](N)c1cccc(-c2cc(COc3ccccc3CC(=O)O)cc(N(C)CC3CC3)c2)c1F` [Example 245, (R)-2-(2-((3′-(1-aminoethyl)-5-((cyclopropylmethyl)(methyl)amino)-2′-fluoro-[1,1′-biphenyl]-3-yl)methoxy)phenyl)acetic acid], 8.05. The value for `C[C@@H](N)c1cccc(-c2cc(COc3ccccc3CC(=O)O)cc(CC3CCOCC3)c2)c1F` [Example 246-C, (R)-2-(2-((3′-(1-aminoethyl)-2′-fluoro-5-((tetrahydro-2H-pyran-4-yl)methyl)-[1,1′-biphenyl]-3-yl)methoxy)phenyl)acetic acid] was above 9.00; that for `C[C@@H](N)c1cccc(-c2cc(COc3ccccc3CC(=O)O)cc(N3CCC3)c2)c1F` [Example 247, (R)-2-(2-((3′-(1-aminoethyl)-5-(azetidin-1-yl)-2′-fluoro-[1,1′-biphenyl]-3-yl)methoxy)phenyl)acetic acid] was 8.00.
